Measurements: US6914045B2, “Glycopeptide antibiotics” (Wyeth Holdings Corporation, priority 2001, dated 2005)
In brackets after ≈: the same amount, converted by molar mass.

Legend:
Assay in all cases: in vitro antibacterial evaluation, MIC by broth dilution
Assay type in all cases: cell-based
[1] = test system: Enterococcus sp.; details: broth dilution, 18 hours at 35° C.
Summary of the method: (§1)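 Read-out: the lowest concentration at which the test strain fails to grow. Serial dilutions (64-0.06 μg/mL) in Muller-Hinton II […], 5×10^5 CFU/mL inoculum, NCCLS M7-A2 procedure.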

[2] = test system: Staphylococcus sp.; details: broth dilution, 18 hours at 35° C.; for MIC Staphylococcus aureus (GC 1131): strain GC 1131; for MIC Staphylococcus aureus (ATCC 29213): strain ATCC 29213; for MIC Staphylococcus aureus (GC 3051): strain GC 3051; for MIC Staphylococcus aureus (GC 3053): strain GC 3053; for MIC Staphylococcus aureus (GC 4541): strain GC 4541; for MIC Staphylococcus aureus (GC 4542): strain GC 4542; for MIC Staphylococcus aureus-SMITH (GC 4543): strain GC 4543; for MIC Staphylococcus aureus (GC 4544): strain GC 4544; for MIC Staphylococcus aureus (GC 4545): strain GC 4545; for MIC Staphylococcus haemolyticus (GC 4546): strain GC 4546; for MIC Coagulase Negative Staphylococcus (GC 4547): strain GC 4547; for MIC Coagulase Negative Staphylococcus (GC 4548): strain GC 4548; for MIC Coagulase Negative Staphylococcus (GC 4549): strain GC 4549; for MIC Coagulase Negative Staphylococcus (GC 4551): strain GC 4551; for MIC Coagulase Negative Staphylococcus (GC 6257): strain GC 6257
Summary of the method: as §1

[3] = test system: Streptococcus sp.; details: broth dilution, 18 hours at 35° C.
Summary of the method: as §1

[4] = test system: Escherichia coli; details: 18 hours at 35° C.

In the case of `CC(c1ccccc1)C1NC(=O)CNC(=O)C(CO)NC(=O)C(C(O)C2CNC(=N)N2C2OC(CO)C(O)C(O)C2O)NC(=O)C(C(O)C2CNC(=N)N2)NC(=O)C(Cc2ccc(OC3OC(CO)C(OC4OC5COC(c6ccc(C(=O)c7ccc(I)cc7)cc6)OC5C(O)C4O)C(O)C3O)cc2)NC1=O` (stereo not shown) [Example 186], the “MIC Enterococcus avium (GC 4558)” value [1] is reported as 2 µg/mL (≈ 1.24 µM), the “MIC Enterococcus faecalis (ATCC 29212)” value [1] is reported as 2 µg/mL (≈ 1.24 µM) and the “MIC Enterococcus faecalis (GC 2242)” value [1] is reported as 2 µg/mL (≈ 1.24 µM). The “MIC Enterococcus faecalis (GC 2691)” value [1] was 2 µg/mL (≈ 1.24 µM), the “MIC Enterococcus faecalis (GC 3059)” value [1] was 2 µg/mL (≈ 1.24 µM) and the “MIC Enterococcus faecalis (GC 4552)” value [1] was 2 µg/mL (≈ 1.24 µM). The “MIC Enterococcus faecalis (GC 4553)” value [1] was 2 µg/mL (≈ 1.24 µM), the “MIC Enterococcus faecalis (GC 4554)” value [1] was 2 µg/mL (≈ 1.24 µM) and the “MIC Enterococcus faecalis (GC 6189)” value [1] was 1 µg/mL (≈ 0.62 µM). For the same compound, the “MIC Enterococcus faecium (GC 2243)” value [1] was 2 µg/mL (≈ 1.24 µM), the “MIC Enterococcus faecium (GC 4556)” value [1] was 2 µg/mL (≈ 1.24 µM) and the “MIC Enterococcus faecium (GC 4557)” value [1] was 2 µg/mL (≈ 1.24 µM). For the same compound, the “MIC Enterococcus faecalis (ATCC 29212)” value ([1]; inoculum 5×10^5 CFU/mL, strain ATCC 29212) was 2 µg/mL (≈ 1.24 µM), the “MIC Enterococcus faecalis (GC 2242)” value ([1]; inoculum 5×10^5 CFU/mL, strain GC 2242) was 2 µg/mL (≈ 1.24 µM) and the “MIC Enterococcus faecium (GC 2243)” value ([1]; inoculum 5×10^5 CFU/mL, strain GC 2243) was 2 µg/mL (≈ 1.24 µM). The “MIC Enterococcus faecalis (GC 2691)” value ([1]; inoculum 5×10^5 CFU/mL, strain GC 2691) was 2 µg/mL (≈ 1.24 µM), the “MIC Enterococcus faecalis (GC 3059)” value ([1]; inoculum 5×10^5 CFU/mL, strain GC 3059) was 2 µg/mL (≈ 1.24 µM) and the “MIC Enterococcus faecalis (GC 4552)” value ([1]; inoculum 5×10^5 CFU/mL, strain GC 4552) was 2 µg/mL (≈ 1.24 µM). For the same compound, the “MIC Enterococcus faecalis (GC 4553)” value ([1]; inoculum 5×10^5 CFU/mL, strain GC 4553) was 2 µg/mL (≈ 1.24 µM), the “MIC Enterococcus faecalis (GC 4554)” value ([1]; inoculum 5×10^5 CFU/mL, strain GC 4554) was 2 µg/mL (≈ 1.24 µM) and the “MIC Enterococcus faecium (GC 4556)” value ([1]; inoculum 5×10^5 CFU/mL, strain GC 4556) was 2 µg/mL (≈ 1.24 µM). For the same compound, the “MIC Enterococcus faecium (GC 4557)” value ([1]; inoculum 5×10^5 CFU/mL, strain GC 4557) was 2 µg/mL (≈ 1.24 µM), the “MIC Enterococcus avium (GC 4558)” value ([1]; inoculum 5×10^5 CFU/mL, strain GC 4558) was 2 µg/mL (≈ 1.24 µM) and the “MIC Enterococcus faecalis (GC 6189)” value ([1]; inoculum 5×10^5 CFU/mL, strain GC 6189) was 1 µg/mL (≈ 0.62 µM). The “MIC Staphylococcus aureus (GC 1131)” value ([2]; inoculum 5×10^5 CFU/mL) was 2 µg/mL (≈ 1.24 µM), the “MIC Staphylococcus aureus (ATCC 29213)” value [2] was 2 µg/mL (≈ 1.24 µM) and the “MIC Staphylococcus aureus (GC 1131)” value [2] was 2 µg/mL (≈ 1.24 µM). For the same compound, the “MIC Staphylococcus aureus (GC 3051)” value [2] was 2 µg/mL (≈ 1.24 µM), the “MIC Staphylococcus aureus (GC 3053)” value [2] was 2 µg/mL (≈ 1.24 µM) and the “MIC Staphylococcus aureus (GC 4541)” value [2] was 2 µg/mL (≈ 1.24 µM). The “MIC Staphylococcus aureus (GC 4542)” value [2] was 1 µg/mL (≈ 0.62 µM), the “MIC Staphylococcus aureus-SMITH (GC 4543)” value [2] was 2 µg/mL (≈ 1.24 µM) and the “MIC Staphylococcus aureus (GC 4544)” value [2] was 2 µg/mL (≈ 1.24 µM). The “MIC Staphylococcus aureus (GC 4545)” value [2] was 2 µg/mL (≈ 1.24 µM), the “MIC Staphylococcus haemolyticus (GC 4546)” value [2] was 1 µg/mL (≈ 0.62 µM) and the “MIC Coagulase Negative Staphylococcus (GC 4547)” value [2] was 2 µg/mL (≈ 1.24 µM). For the same compound, the “MIC Coagulase Negative Staphylococcus (GC 4548)” value [2] was 1 µg/mL (≈ 0.62 µM), the “MIC Coagulase Negative Staphylococcus (GC 4549)” value [2] was 1 µg/mL (≈ 0.62 µM) and the “MIC Coagulase Negative Staphylococcus (GC 4551)” value [2] was 2 µg/mL (≈ 1.24 µM). For the same compound, the “MIC Coagulase Negative Staphylococcus (GC 6257)” value [2] was 0.5 µg/mL (≈ 0.31 µM), the “MIC Streptococcus agalactiae (GC 4564)” value [3] was <0.06 µg/mL and the “MIC Streptococcus pneumoniae (ATCC 6301)” value [3] was <0.06 µg/mL. The “MIC Streptococcus pneumoniae (GC 1894)” value [3] was <0.06 µg/mL, the “MIC Streptococcus pneumoniae (GC 4565)” value [3] was <0.06 µg/mL and the “MIC Streptococcus pyogenes (GC 4563)” value [3] was 0.25 µg/mL (≈ 0.155 µM). For the same compound, the “MIC Streptococcus pneumoniae (ATCC 6301)” value ([3]; inoculum 5×10^5 CFU/mL, strain ATCC 6301) was <0.06 µg/mL, the “MIC Streptococcus pneumoniae (GC 1894)” value ([3]; inoculum 5×10^5 CFU/mL, strain GC 1894) was <0.06 µg/mL and the “MIC Streptococcus pyogenes (GC 4563)” value ([3]; inoculum 5×10^5 CFU/mL, strain GC 4563) was 0.25 µg/mL (≈ 0.155 µM). For the same compound, the “MIC Streptococcus agalactiae (GC 4564)” value ([3]; inoculum 5×10^5 CFU/mL, strain GC 4564) was <0.06 µg/mL, the “MIC Streptococcus pneumoniae (GC 4565)” value ([3]; inoculum 5×10^5 CFU/mL, strain GC 4565) was <0.06 µg/mL and the “MIC Escherichia coli (ATCC 25922)” value [4] was 64 µg/mL (≈ 39.7 µM). For the same compound, the “MIC Escherichia coli (GC 4559)” value [4] was 64 µg/mL (≈ 39.7 µM) and the “MIC Escherichia coli (GC 4560)” value [4] was 4 µg/mL (≈ 2.48 µM).
For `CC(c1ccccc1)C1NC(=O)CNC(=O)C(CO)NC(=O)C(C(O)C2CNC(=N)N2C2OC(CO)C(O)C(O)C2O)NC(=O)C(C(O)C2CNC(=N)N2)NC(=O)C(Cc2ccc3oc(C=C(c4ccccc4)c4ccccc4)nc3c2)NC1=O` (stereo not drawn) [Example 39, Cyclo[3-[2-(2,2-diphenylethenyl)-1,3-benzoxazol-5-yl]alanyl-3-(2-iminoimidazolidin-4-yl)seryl-3-(3-hexopyranosyl-2-iminoimidazolidin-4-yl)serylserylglycyl-β-methylphenylalanyl]], the “MIC Enterococcus faecalis (ATCC 29212)” value ([1]; strain ATCC 29212) was 16 µg/mL (≈ 13.6 µM), the “MIC Enterococcus faecalis (GC 2242)” value ([1]; strain GC 2242) was 16 µg/mL (≈ 13.6 µM) and the “MIC Enterococcus faecium (GC 2243)” value ([1]; strain GC 2243) was 8 µg/mL (≈ 6.81 µM). For the same compound, the “MIC Enterococcus faecalis (GC 2691)” value ([1]; strain GC 2691) was 16 µg/mL (≈ 13.6 µM), the “MIC Enterococcus faecalis (GC 3059)” value ([1]; strain GC 3059) was 16 µg/mL (≈ 13.6 µM) and the “MIC Enterococcus faecalis (GC 4552)” value ([1]; strain GC 4552) was 16 µg/mL (≈ 13.6 µM). For the same compound, the “MIC Enterococcus faecalis (GC 4553)” value ([1]; strain GC 4553) was 8 µg/mL (≈ 6.81 µM), the “MIC Enterococcus faecalis (GC 4554)” value ([1]; strain GC 4554) was 32 µg/mL (≈ 27.3 µM) and the “MIC Enterococcus faecium (GC 4556)” value ([1]; strain GC 4556) was 32 µg/mL (≈ 27.3 µM). The “MIC Enterococcus faecium (GC 4557)” value ([1]; strain GC 4557) was 8 µg/mL (≈ 6.81 µM), the “MIC Enterococcus avium (GC 4558)” value ([1]; strain GC 4558) was 8 µg/mL (≈ 6.81 µM) and the “MIC Enterococcus faecalis (GC 6189)” value ([1]; strain GC 6189) was 16 µg/mL (≈ 13.6 µM). For the same compound, the “MIC Staphylococcus aureus (ATCC 29213)” value [2] was 16 µg/mL (≈ 13.6 µM), the “MIC Staphylococcus aureus (GC 1131)” value [2] was 16 µg/mL (≈ 13.6 µM) and the “MIC Staphylococcus aureus (GC 3051)” value [2] was 16 µg/mL (≈ 13.6 µM). The “MIC Staphylococcus aureus (GC 3053)” value [2] was 8 µg/mL (≈ 6.81 µM), the “MIC Staphylococcus aureus (GC 4541)” value [2] was 16 µg/mL (≈ 13.6 µM) and the “MIC Staphylococcus aureus (GC 4542)” value [2] was 16 µg/mL (≈ 13.6 µM). The “MIC Staphylococcus aureus-SMITH (GC 4543)” value [2] was 16 µg/mL (≈ 13.6 µM), the “MIC Staphylococcus aureus (GC 4544)” value [2] was 16 µg/mL (≈ 13.6 µM) and the “MIC Staphylococcus aureus (GC 4545)” value [2] was 16 µg/mL (≈ 13.6 µM). The “MIC Staphylococcus haemolyticus (GC 4546)” value [2] was 8 µg/mL (≈ 6.81 µM), the “MIC Coagulase Negative Staphylococcus (GC 4547)” value [2] was 8 µg/mL (≈ 6.81 µM) and the “MIC Coagulase Negative Staphylococcus (GC 4548)” value [2] was 8 µg/mL (≈ 6.81 µM). The “MIC Coagulase Negative Staphylococcus (GC 4549)” value [2] was 4 µg/mL (≈ 3.41 µM), the “MIC Coagulase Negative Staphylococcus (GC 4551)” value [2] was 8 µg/mL (≈ 6.81 µM) and the “MIC Coagulase Negative Staphylococcus (GC 6257)” value [2] was 4 µg/mL (≈ 3.41 µM). For the same compound, the “MIC Streptococcus pneumoniae (ATCC 6301)” value ([3]; strain ATCC 6301) was 8 µg/mL (≈ 6.81 µM), the “MIC Streptococcus pneumoniae (GC 1894)” value ([3]; strain GC 1894) was 8 µg/mL (≈ 6.81 µM) and the “MIC Streptococcus pyogenes (GC 4563)” value ([3]; strain GC 4563) was 4 µg/mL (≈ 3.41 µM). For the same compound, the “MIC Streptococcus agalactiae (GC 4564)” value ([3]; strain GC 4564) was 16 µg/mL (≈ 13.6 µM), the “MIC Streptococcus pneumoniae (GC 4565)” value ([3]; strain GC 4565) was 16 µg/mL (≈ 13.6 µM) and the “MIC Escherichia coli (ATCC 25922)” value ([4]; strain ATCC 25922, broth dilution) was 128 µg/mL (≈ 109 µM). For the same compound, the “MIC Escherichia coli (GC 4559)” value ([4]; strain GC 4559, broth dilution) was 128 µg/mL (≈ 109 µM) and the “MIC Escherichia coli (GC 4560)” value ([4]; strain GC 4560, broth dilution) was 16 µg/mL (≈ 13.6 µM).
